For experiment [1], the target named is T1, CXCR4 (Homo sapiens, UniProt P61073). The experiment in a line: Chemokine (CXCL12-AF647) binding inhibition assay, Jurkat cells expressing CXCR4. To be noted: CXCL12-AF647 25 ng/ml, read-out: IC50 CXCL-12 binding Jurkat. On the procedure: Jurkat cells expressing CXCR4 were washed once with assay buffer (Hanks' balanced salt solution with 20 mM HEPES buffer and 0.2% bovine serum albumin, pH 7.4) and then incubated for 15 min at room temperature with the test compounds diluted in assay buffer at dose-dependent concentrations. Subsequently, CXCL12-AF647 (25 ng/ml) was added to the compound-incubated cells. The cells were incubated for 30 min at room temperature. Thereafter, the cells were washed twice in assay buffer, fixed in 1% paraformaldehyde in PBS, and analyzed on the FL4 channel of a FACSCalibur flow cytometer equipped with a 635-nm red diode laser (Becton Dickinson, San Jose, CA, USA).
T1 sequence (P61073 whole entry): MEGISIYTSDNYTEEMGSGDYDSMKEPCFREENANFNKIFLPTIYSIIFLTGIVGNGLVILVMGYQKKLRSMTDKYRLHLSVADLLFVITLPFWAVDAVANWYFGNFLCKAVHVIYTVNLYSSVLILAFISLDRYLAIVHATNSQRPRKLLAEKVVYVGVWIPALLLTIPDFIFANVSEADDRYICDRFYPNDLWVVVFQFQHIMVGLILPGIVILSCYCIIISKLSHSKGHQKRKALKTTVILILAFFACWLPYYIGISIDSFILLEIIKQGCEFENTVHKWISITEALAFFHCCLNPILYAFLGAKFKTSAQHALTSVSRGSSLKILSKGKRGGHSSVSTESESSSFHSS
The percentages of inhibition of CXCL12-AF647 binding were calculated according to the formula: [1−((MFI−MFINC)/(MFIPC−MFINC))]×100 where MFI is the mean fluorescence intensity of the cells incubated with CXCL 12-AF647 in the presence of the inhibitor, MFINC is the mean fluorescence intensity measured in the negative control (i.e., autofluorescence of unlabeled cells), and MFIPC is the mean fluorescence intensity of the positive control (i.e., cells exposed to CXCL12-AF647 alone).

For a further experiment, the target named is BTK (Homo sapiens, UniProt Q06187). The experiment in a line: BTK Kinase Enzyme System with ADP-Glo Kinase Assay. The following applies: 50 μM ATP. Type of experiment: biochemical. Details: Recombinant full-length human BTK was expressed by baculovirus in Sf9 insect cells; His (N); purchased Promega V9071; host or cells: Sf9 insect cells (baculovirus). On the procedure: Inhibition of BTK activity was evaluated using the BTK Kinase Enzyme System in combination with the ADP-Glo™ Kinase Assay Kit (V9071, Promega), according to manufacturer's instructions. Luminescence was detected on a PerkinElmer EnVision Multimode Plate Reader.
BTK, sequence (Q06187 whole entry): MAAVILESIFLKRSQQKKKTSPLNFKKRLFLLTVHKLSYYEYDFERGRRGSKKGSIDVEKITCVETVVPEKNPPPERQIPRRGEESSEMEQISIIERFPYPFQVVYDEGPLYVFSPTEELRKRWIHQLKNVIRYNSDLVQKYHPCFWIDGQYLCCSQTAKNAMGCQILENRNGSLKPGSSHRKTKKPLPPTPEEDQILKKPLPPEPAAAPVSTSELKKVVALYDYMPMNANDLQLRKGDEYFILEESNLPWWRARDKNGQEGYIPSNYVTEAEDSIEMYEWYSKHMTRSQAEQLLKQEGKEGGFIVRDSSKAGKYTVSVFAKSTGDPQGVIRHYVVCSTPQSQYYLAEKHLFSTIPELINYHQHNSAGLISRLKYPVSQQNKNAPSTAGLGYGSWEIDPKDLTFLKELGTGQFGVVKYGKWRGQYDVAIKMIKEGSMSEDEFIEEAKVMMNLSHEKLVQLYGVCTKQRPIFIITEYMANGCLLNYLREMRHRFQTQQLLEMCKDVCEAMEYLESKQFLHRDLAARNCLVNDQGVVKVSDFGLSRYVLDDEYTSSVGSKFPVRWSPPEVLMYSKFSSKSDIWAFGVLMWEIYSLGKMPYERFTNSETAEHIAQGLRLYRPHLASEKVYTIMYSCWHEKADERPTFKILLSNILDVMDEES
Recombinant full-length human BTK was expressed by baculovirus in Sf9 insect cells using an N-terminal His tag, MW ˜78 kDa. Substrate solution contained Poly (4:1 Glu, Tyr) Peptide Substrate. BTK Kinase Buffer consisted of: 40 mM Tris, pH 7.5; 20 mM MgCl2; 0.1 mg/ml BSA; 2 mM MnCl2; 50 μM DTT. ADP-Glo™ Reagents were thawed at ambient temperature; components of BTK Enzyme System, ADP and ATP were thawed on ice. Final assay conditions used 3 ng BTK, 50 μM ATP, and 0.2 mg/mL substrate. Compounds were tested at 11 dose points in duplicates, in 3-fold dilution with top concentration at 10 μM.
Assay performance was evaluated according to the reference compound Staurosporine, which was within 3-5 fold of published results and between different tests, with a Z′ value larger than 0.5, where applicable.

Experiment [2] addresses T1, CXCR4. The experiment can be described thus: Intracellular CXCL-12-induced calcium mobilization assay (FLIPR), U87.CXCR4 cells. It counts as cell-based. Details: expressed in transfected cells; host or cells: U87 (U87.CXCR4). The following applies: CXCL-12 25-50 ng/ml, read-out: IC50 CXCL-12 Ca2+ flux U87.CXCR4+. As to the method: Intracellular calcium mobilization induced by chemokines or chemokine-derived peptides were evaluated using a calcium responsive fluorescent probe and a FLIPR system. The CXCR-4 transfected U87 cell line (U87.CXCR4) cells were seeded in gelatine-coated black-wall 96-well plates at 20,000 cells per well and incubated for 12 hours. Cells were then loaded with the fluorescent calcium probe Fluo-2 acetoxymethyl at 4 μM final concentration in assay buffer (Hanks' balanced salt solution with 20 mM HEPES buffer and 0.2% bovine serum albumin, pH 7.4) for 45 min at 37° C. The intracellular calcium mobilization induced by the CXCL-12 (25-50 ng/ml) was then measured at 37° C. by monitoring the fluorescence as a function of time in all the wells simultaneously using a fluorometric imaging plate reader (FLIPR Tetra, Molecular Devices).

Experiment [3] deals with T2, BTK (Bruton tyrosine kinase) (Homo sapiens, UniProt Q06187).
T2 construct: GST or His (the text leaves open which); purchased Reaction Biology Europe GmbH Lot 012,11; host or cells: Sf9 insect cells or E. coli (not resolved)
T2 sequence (Q06187 whole entry): as above
The experiment can be described thus: BTK screening assay (33PanQinase Activity Assay, radiometric). Type of experiment: biochemical. The following applies: Inhibition of BTK, radiometric 33PanQinase Activity Assay, 3 μM ATP, 10 concentrations in singlicate, top 10 μM; read-out: 33PanQinase ® Radiometric IC50. As to the method: Inhibition of BTK activity was evaluated using a radiometric protein kinase assay (33PanQinase® Activity Assay) to measure the activity of BTK (Bruton tyrosine kinase).
Kinase assays were performed in 96-well ScintiPlates™ from Perkin Elmer (Boston, MA, USA) in a 50 μL reaction volume. The reaction cocktail was pipetted in four steps in the following order: 10 μL of non-radioactive ATP solution (in H2O); 25 μL of assay buffer/[γ-^33P]-ATP mixture; 5 μL of compound test sample in 10% DMSO; 10 μL of enzyme/substrate mixture.
BTK kinase was expressed in Sf9 insect cells or in E. coli as recombinant GST-fusion proteins or His-tagged proteins, either as full-length or enzymatically active fragments from human cDNAs, and purified by either GSH-affinity chromatography or immobilized metal. Purity was examined by SDS-PAGE/Coomassie staining, and identity confirmed by mass spectroscopy.
The reaction cocktails were incubated at 30° C. for 60 minutes. The reaction was stopped with 50 μL of 2% (v/v) H3PO4, plates were aspirated and washed two times with 200 μL 0.9% (w/v) NaCl. Incorporation of ^33Pi (counting of “cpm”) was determined with a microplate scintillation counter (Microbeta, Wallac).
The median value of the counts in wells containing assay buffer without enzyme, and without test compound was defined as “low control.” This value reflects unspecific binding of radioactivity to the plate in the absence of a protein kinase but in the presence of the substrate. The median value of the counts in wells containing assay buffer without test compound was defined as the “high control,” i.e. full activity in the absence of any inhibitor. The difference between high and low control was taken as 100% activity. Residual activity (in %) was calculated using the following formula: Res. Activity (%)=100×[(cpm of compound-low control)/(high control-low control)].
The fitting method used was a least-squares fit.

The values that follow come from US20250326753A1, “DUAL CXCR4-BTK INHIBITORS” (X4 Pharmaceuticals, Inc., priority 2022, published 2025).

Structures are written as SMILES. pIC50: −log10 of the molar value.

As to `Cc1cccnc1[C@H]1CCC[C@@H](c2ncccc2C)N1CCCCNC(=O)c1cc2c(-c3ccc(CNC(=O)c4ccc(C(C)(C)C)cc4)cc3)ncnc2[nH]1` [Compound I-1], the negative-log IC50 (pIC50) was 7.00 to 9.00 at CXCR4 [1], 6.00 to 7.00 on BTK, < 5.60 on CXCR4 [2] and 6.00 to 7.00 in experiment [3].

As to `Cc1cccnc1[C@H]1CCC[C@@H](c2ncccc2C)N1CCCCN(C)C(=O)c1cc2c(-c3ccc(CNC(=O)c4ccc(C(C)(C)C)cc4)cc3)ncnc2[nH]1` [Compound I-2], the pIC50 on CXCR4 [1] was 7.00 to 9.00; on BTK it was 5.60 to 6.00; on CXCR4 [2], < 5.60; in experiment [3] it was 5.60 to 6.00.

With `Cc1cc(-c2ncnc3[nH]c(C(=O)NCCN4[C@@H](c5ncccc5C)CCC[C@H]4c4ncccc4C)cc23)ccc1CNC(=O)c1ccc(C(C)(C)C)cc1` [Compound I-3], the pIC50 on CXCR4 [1] was 6.00 to 7.00; on BTK, 7.00 to 9.00; on CXCR4 [2] it was < 5.60; in experiment [3], 7.00 to 9.00.

As to `Cc1cc(-c2ncnc3[nH]c(C(=O)NCCCN4[C@@H](c5ncccc5C)CCC[C@H]4c4ncccc4C)cc23)ccc1CNC(=O)c1ccc(C(C)(C)C)cc1` [Compound I-4], the pIC50 on CXCR4 [1] was 7.00 to 9.00; at BTK, 7.00 to 9.00; on CXCR4 [2], < 5.60; in experiment [3], 7.00 to 9.00.

On to `Cc1cc(-c2ncnc3[nH]c(C(=O)N(C)CCCN4[C@@H](c5ncccc5C)CCC[C@H]4c4ncccc4C)cc23)ccc1CNC(=O)c1ccc(C(C)(C)C)cc1` [Compound I-5], for which the negative-log IC50 (pIC50) on CXCR4 [1] is 6.00 to 7.00; on BTK, 6.00 to 7.00; at CXCR4 [2], < 5.60; in experiment [3], 6.00 to 7.00.

Consider `Cc1cccnc1[C@H]1CCC[C@@H](c2ncccc2C)N1CCCCNC[C@@H]1CC[C@@H](Nc2ncnc3[nH]cc(C(=O)c4ccc(Oc5ccccc5)cc4Cl)c23)CO1` [Compound I-13, (4-((3R,6S)-6-((4-((2R,6S)-2,6-bis(3-methylpyridin-2-yl)piperidin-1-yl)butylamino)methyl)tetrahydro-2H-pyran-3-ylamino)-7H-pyrrolo[2,3-d]pyrimidin-5-yl) (2-chloro-4-phenoxyphenyl) methanone], for which the negative-log IC50 (pIC50) is 6.00 to 7.00 on CXCR4 [1], 6.00 to 7.00 at BTK, < 5.60 on CXCR4 [2] and 6.00 to 7.00 in experiment [3].

With `Cc1cccnc1[C@H]1CCC[C@@H](c2ncccc2C)N1CCCCOC(=O)[C@@H]1CC[C@@H](Nc2ncnc3[nH]cc(C(=O)c4ccc(Oc5ccccc5)cc4Cl)c23)CO1` [Compound I-14], the negative-log IC50 (pIC50) was < 5.60 on CXCR4 [1], 7.00 to 9.00 on BTK, < 5.60 at CXCR4 [2] and 7.00 to 9.00 in experiment [3].

In the case of `Cc1cccnc1[C@H]1CCC[C@@H](c2ncccc2C)N1CCNC[C@@H]1CC[C@@H](Nc2ncnc3[nH]cc(C(=O)c4ccc(Oc5ccccc5)cc4Cl)c23)CO1` [Compound I-15, (4-((3R,6S)-6-((2-((2R,6S)-2,6-bis(3-methylpyridin-2-yl)piperidin-1-yl)ethylamino)methyl)tetrahydro-2H-pyran-3-ylamino)-7H-pyrrolo[2,3-d]pyrimidin-5-yl) (2-chloro-4-phenoxyphenyl) methanone], the pIC50 is 5.60 to 6.00 on CXCR4 [1], 5.60 to 6.00 at BTK, < 5.60 on CXCR4 [2] and 5.60 to 6.00 in experiment [3].

For the compound `Cc1cccnc1[C@H]1CCC[C@@H](c2ncccc2C)N1CCNC(=O)[C@@H]1CC[C@@H](Nc2ncnc3[nH]cc(C(=O)c4ccc(Oc5ccccc5)cc4Cl)c23)CO1` [Compound I-17], the pIC50 at CXCR4 [1] was 5.60 to 6.00; at BTK it was 7.00 to 9.00; on CXCR4 [2], < 5.60; in experiment [3] it was 7.00 to 9.00.

For the compound `Cc1cc(-c2ncnc3[nH]c(C(=O)NCCCCN4[C@@H](c5ncccc5C)CCC[C@H]4c4ncccc4C)cc23)ccc1CNC(=O)c1ccc(C(F)(F)F)cc1` [Compound I-46], the negative-log IC50 (pIC50) at CXCR4 [1] is 7.00 to 9.00; on CXCR4 [2], 6.00 to 7.00; in experiment [3] it was 7.00 to 9.00.

On to `Cc1cccnc1[C@H]1CC(Cn2cc(-c3ccc(Oc4ccccc4)cc3)c3c(N)ncnc32)C[C@@H](c2ncccc2C)N1CCCCN` (stereo partly drawn) [Compound I-61], for which the negative-log IC50 (pIC50) (on CXCR4 [1]; on CXCR4 [2]; in experiment [3]) was < 5.60 in each case.

As for `Cc1cccnc1[C@H]1CCC[C@@H](c2ncccc2C)N1CCn1cc(-c2ccc(Oc3ccccc3)cc2)c2c(N)ncnc21` [Compound I-63], the negative-log IC50 (pIC50) on CXCR4 [1] was 5.60 to 6.00; at CXCR4 [2], < 5.60; in experiment [3] it was < 5.60.

On to `Cc1cccnc1[C@H]1CCC[C@@H](c2ncccc2C)N1CCCn1cc(-c2ccc(Oc3ccccc3)cc2)c2c(N)ncnc21` [Compound I-64], for which the negative-log IC50 (pIC50) (at CXCR4 [1]; on CXCR4 [2]; in experiment [3]) was < 5.60 each time.

In the case of `Cc1cc(-c2ccnc(Nc3cnn(CCN4CCCCC4c4ncccc4C)c3)n2)ccc1CNC(=O)N1CC(OC(C)C)C1` (stereo not drawn) [Compound I-66], the pIC50 is < 5.60 on CXCR4 [1], < 5.60 at CXCR4 [2] and 7.00 to 9.00 in experiment [3].

Usually pIC50 stands for the IC50 on a negative log10 scale, so that one unit is a factor of ten.
